# From patent publication US20160046618A1, “Cyclopropyl Fused Thiazin-2-Amine Compounds as Beta-Secretase Inhibitors and Methods of Use” (AMGEN INC., priority 2014, published 2016)
# Where two headings read alike, the source gives them in different places.
# Assays:
# Recombinant Cat D = Recombinant Cat D (Homo sapiens (Human), UniProt P07339); assay: In vitro enzymatic Cathepsin D (Cat D) FRET assay; format: biochemical; settings: read-out: IC50 IP (μM) CatD
# Outline: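 Cleavage of a 20 nM fluorophore/quencher peptide by CHO-expressed recombinant Cat D proceeded for one hour at pH 3.5 (0.05 M citrate, 5 mM CHAPS, 10% DMSO final). Tris addition neutralized the pH to end the reaction. Fluorescence was then measured (ex 500 nm/em 580 nm).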
# human recombinant BACE1 = human recombinant BACE1 (Homo sapiens (Human), UniProt P56817); assay: In vitro enzymatic BACE1 FRET assay; format: biochemical; settings: read-out: IC50 IP (μM) BACE1 enzyme
# human recombinant BACE1, sequence (P56817 46-501): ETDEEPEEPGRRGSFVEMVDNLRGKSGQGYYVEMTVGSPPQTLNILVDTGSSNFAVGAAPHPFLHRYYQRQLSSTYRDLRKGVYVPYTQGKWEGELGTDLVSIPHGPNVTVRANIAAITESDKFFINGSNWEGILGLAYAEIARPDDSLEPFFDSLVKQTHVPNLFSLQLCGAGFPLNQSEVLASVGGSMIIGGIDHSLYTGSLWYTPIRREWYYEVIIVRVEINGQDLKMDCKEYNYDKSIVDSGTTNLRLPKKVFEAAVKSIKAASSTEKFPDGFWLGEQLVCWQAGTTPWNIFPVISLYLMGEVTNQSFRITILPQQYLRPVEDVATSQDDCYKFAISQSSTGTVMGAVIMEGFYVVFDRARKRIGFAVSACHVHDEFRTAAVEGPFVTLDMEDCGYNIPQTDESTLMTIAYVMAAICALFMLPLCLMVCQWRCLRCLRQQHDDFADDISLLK
# Outline: (§1)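 Protease purified by Ni-NTA chromatography; start with FRET substrate (50 nM); incubate 1 h; quench with Tris to neutral pH; read fluorescence ex 488 / em 590 nm.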
# [1] = tested on: Aβ40 in conditioned medium of cells stably expressing Amyloid Precursor Protein (APP); assay: In vitro BACE-1 cell-based assay (Aβ40 sandwich ELISA); settings: read-out: IC50 IP (μM) BACE1 cell
# Outline: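 APP-expressing cells treated 24 h at 37 °C with compound in 10-point dose response (top 100 μM or 10 μM, 0.1% DMSO final). Secreted Aβ40 in conditioned medium quantified by sandwich ELISA (pAb40 capture, biotinylated 6E10 detection, time-resolved europium fluorescence); IC50 from percent inhibition versus concentration.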
# human recombinant BACE2 = human recombinant BACE2 (Homo sapiens (Human), UniProt Q9Y5Z0); assay: In vitro enzymatic BACE2 FRET assay; format: biochemical; settings: read-out: IC50 IP (μM) BACE2 enzyme
# human recombinant BACE2, sequence (Q9Y5Z0 63-518): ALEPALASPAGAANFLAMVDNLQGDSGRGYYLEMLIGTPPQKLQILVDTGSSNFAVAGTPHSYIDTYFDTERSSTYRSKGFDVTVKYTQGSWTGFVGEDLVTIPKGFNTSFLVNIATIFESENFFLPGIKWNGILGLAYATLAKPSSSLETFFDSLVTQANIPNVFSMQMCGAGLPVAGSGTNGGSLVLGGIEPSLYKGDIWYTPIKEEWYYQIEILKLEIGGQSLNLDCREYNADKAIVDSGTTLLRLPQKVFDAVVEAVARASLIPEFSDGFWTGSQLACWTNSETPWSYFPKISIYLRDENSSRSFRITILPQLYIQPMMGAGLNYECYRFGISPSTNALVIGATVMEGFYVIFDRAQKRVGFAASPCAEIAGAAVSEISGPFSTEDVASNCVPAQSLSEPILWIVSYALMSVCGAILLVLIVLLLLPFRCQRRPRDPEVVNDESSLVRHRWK
# Outline: as §1
# Recombinant Cat D, sequence (P07339 65-412): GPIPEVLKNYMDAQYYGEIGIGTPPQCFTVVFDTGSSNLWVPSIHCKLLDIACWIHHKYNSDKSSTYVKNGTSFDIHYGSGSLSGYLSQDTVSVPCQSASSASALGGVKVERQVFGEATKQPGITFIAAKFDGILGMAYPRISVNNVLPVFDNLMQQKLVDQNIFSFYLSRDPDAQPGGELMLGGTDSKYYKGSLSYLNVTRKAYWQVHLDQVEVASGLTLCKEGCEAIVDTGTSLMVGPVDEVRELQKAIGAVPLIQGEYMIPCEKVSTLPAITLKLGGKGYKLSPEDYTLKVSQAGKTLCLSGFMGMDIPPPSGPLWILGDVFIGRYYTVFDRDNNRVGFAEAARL
IC50 (Recombinant Cat D) [µM],IC50 (human recombinant BACE1) [µM],IC50 [1] [µM],IC50 (human recombinant BACE2) [µM],IC50 (Recombinant Cat D; Cathepsin D FRET enzyme assay) [µM],IC50 (human recombinant BACE1; BACE1 FRET enzyme assay) [µM],IC50 ([1]; BACE1 cell-based assay) [µM],IC50 (human recombinant BACE2; BACE2 FRET enzyme assay) [µM],SMILES
751,0.00246,0.0328,0.134,,,,,"Cc1cc(OCc2ncco2)cnc1C(=O)Nc1cc(F)c(F)c([C@@]2(C)N=C(N)S[C@@]3(C(F)F)C[C@@H]23)c1 [Example 643, N-(3-((1S,5S,6S)-3-amino-1-(difluoromethyl)-5-methyl-2-thia-4-azabicyclo[4.1.0]hept-3-en-5-yl)-4,5-difluorophenyl)-3-methyl-5-(1,3-oxazol-2-ylmethoxy)-2-pyridinecarboxamide]"
638,0.00142,0.007,0.0685,,,,,"C#CCOc1cnc2c(Nc3ccc(F)c([C@@]4(C)N=C(N)S[C@@]5([C@@H](O)C(F)(F)F)C[C@H]54)c3)nccc2n1 [Example 672, (1S)-1-((1S,5S,6S)-3-amino-5-(2-fluoro-5-((2-(2-propyn-1-yloxy)pyrido[3,4-b]pyrazin-5-yl)amino)phenyl)-5-methyl-2-thia-4-azabicyclo[4.1.0]hept-3-en-1-yl)-2,2,2-trifluoroethanol]"
,,,,> 400,0.00489,0.0284,0.143,"Cc1nc(OCC(F)(F)F)cnc1C(=O)Nc1ccc(F)c([C@@]2(CF)N=C(N)S[C@@]3(CO)C[C@H]32)c1 [Example 79, N-(3-((1S,5S,6S)-3-amino-5-(fluoromethyl)-1-(hydroxymethyl)-2-thia-4-azabicyclo[4.1.0]hept-3-en-5-yl)-4-fluorophenyl)-3-methyl-5-(2,2,2-trifluoroethoxy)-2-pyrazinecarboxamide]"
526,0.00357,0.00111,0.0542,,,,,"C[C@]1(c2cc(Nc3nccc4nc(OCc5ncco5)cnc34)ccc2F)N=C(N)S[C@@]2(CF)C[C@H]21 [Example 825, N-(3-((1S,5S,6S)-3-amino-1-(fluoromethyl)-5-methyl-2-thia-4-azabicyclo[4.1.0]hept-3-en-5-yl)-4-fluorophenyl)-2-(1,3-oxazol-2-ylmethoxy)pyrido[3,4-b]pyrazin-5-amine]"
306,0.0418,0.252,1.41,,,,,"Cc1nnc(COc2cnc3c(Nc4cc(F)c(F)c([C@@]5(C)N=C(N)S[C@@]6(C(F)F)C[C@@H]56)c4)nccc3n2)s1 [Example 889, N-(3-((1S,5S,6S)-3-amino-1-(difluoromethyl)-5-methyl-2-thia-4-azabicyclo[4.1.0]hept-3-en-5-yl)-4,5-difluorophenyl)-2-((5-methyl-1,3,4-thiadiazol-2-yl)methoxy)pyrido[3,4-b]pyrazin-5-amine]"
936,0.000695,0.00254,0.0436,,,,,"C#C[C@H](C)Oc1cnc(C(=O)Nc2cc(F)c(F)c([C@@]3(C)N=C(N)S[C@@]4(COC)C[C@H]43)c2)cn1 [Example 1009, N-(3-((1S,5S,6S)-3-amino-1-(methoxymethyl)-5-methyl-2-thia-4-azabicyclo[4.1.0]hept-3-en-5-yl)-4,5-difluorophenyl)-5-(((1S)-1-methyl-2-propyn-1-yl)oxy)-2-pyrazinecarboxamide]"
49.9,0.00014,0.000229,0.0079,,,,,"C#CCOc1cnc(C(=O)Nc2ccc(F)c([C@@]3(C)N=C(N)S[C@@]4(C(=O)NC)C[C@H]43)c2)cn1 [Example 987, (1S,5S,6S)-3-amino-5-(2-fluoro-5-(((5-(2-propyn-1-yloxy)-2-pyrazinyl)carbonyl)amino)phenyl)-N,5-dimethyl-2-thia-4-azabicyclo[4.1.0]hept-3-ene-1-carboxamide]"
,,,,> 400,0.00116,0.0035,0.00247,"Cc1cc(C#N)cnc1C(=O)Nc1cc(F)c(F)c([C@@]2(CF)N=C(N)S[C@@]3(CO)C[C@H]32)c1 [Example 70, N-(3-((1S,5S,6S)-3-amino-5-(fluoromethyl)-1-(hydroxymethyl)-2-thia-4-azabicyclo[4.1.0]hept-3-en-5-yl)-4,5-difluorophenyl)-5-cyano-3-methyl-2-pyridinecarboxamide]"
,,,,34.1,0.00682,0.128,0.0112,"COC[C@@]12C[C@@H]1[C@@](CF)(c1cc(Nc3nccc4cc(C#N)cnc34)cc(F)c1F)N=C(N)S2 [Example 90, 8-((3-((1R,5S,6R)-3-amino-5-(fluoromethyl)-1-(methoxymethyl)-2-thia-4-azabicyclo[4.1.0]hept-3-en-5-yl)-4,5-difluorophenyl)amino)-1,7-naphthyridine-3-carbonitrile]"
> 400,0.000671,0.0147,0.0211,,,,,"CC#CCOc1cnc2c(Nc3cc(F)c(F)c([C@@]4(C)N=C(N)S[C@@]5(C(F)F)C[C@@H]45)c3)nccc2n1 [Example 868, N-(3-((1S,5S,6S)-3-amino-1-(difluoromethyl)-5-methyl-2-thia-4-azabicyclo[4.1.0]hept-3-en-5-yl)-4,5-difluorophenyl)-2-(2-butyn-1-yloxy)pyrido[3,4-b]pyrazin-5-amine]"
171,0.231,1.07,0.353,,,,,"CN(C)C(=O)COc1cnc2c(Nc3cc(F)c(F)c([C@@]4(C)N=C(N)S[C@@]5(C(F)F)C[C@@H]45)c3)nccc2n1 [Example 878, 2-((5-((3-((1S,5S,6S)-3-amino-1-(difluoromethyl)-5-methyl-2-thia-4-azabicyclo[4.1.0]hept-3-en-5-yl)-4,5-difluorophenyl)amino)pyrido[3,4-b]pyrazin-2-yl)oxy)-N,N-dimethylacetamide]"
337,0.00155,0.0033,0.0157,,,,,"C#CCOc1cnc2c(Nc3cnc(F)c([C@@]4(C)N=C(N)S[C@@]5([C@H](OC)C(F)(F)F)C[C@H]54)c3)nccc2n1 [Example 676, N-(5-((1S,5S,6S)-3-amino-5-methyl-1-((1R)-2,2,2-trifluoro-1-methoxyethyl)-2-thia-4-azabicyclo[4.1.0]hept-3-en-5-yl)-6-fluoro-3-pyridinyl)-2-(2-propyn-1-yloxy)pyrido[3,4-b]pyrazin-5-amine]"
> 400,0.00285,0.00174,0.154,,,,,"C[C@]1(c2cc(Nc3ncnc4cc(OCc5ncco5)cnc34)cnc2F)N=C(N)S[C@@]2(CC#N)C[C@H]21 [Example 608, ((1R,5S,6S)-3-amino-5-(2-fluoro-5-((7-(1,3-oxazol-2-ylmethoxy)pyrido[3,2-d]pyrimidin-4-yl)amino)-3-pyridinyl)-5-methyl-2-thia-4-azabicyclo[4.1.0]hept-3-en-1-yl)acetonitrile]"
479,0.0148,0.0796,0.0125,,,,,"CC(=O)[C@]12C[C@H]1[C@@](C)(c1cc(Nc3ncnc4cc(Cl)cnc34)cc(F)c1F)N=C(N)S2 [Example 902, 1-((1S,5S,6S)-3-amino-5-(5-((7-chloropyrido[3,2-d]pyrimidin-4-yl)amino)-2,3-difluorophenyl)-5-methyl-2-thia-4-azabicyclo[4.1.0]hept-3-en-1-yl)ethanone]"
14.5,0.00132,0.00257,0.014,,,,,"CC(C)[C@H](C)NC(=O)[C@]12C[C@H]1[C@@](C)(c1cc(NC(=O)c3cnc(OCC(F)(F)F)cn3)ccc1F)N=C(N)S2 [Example 974, (1S,5S,6S)-3-amino-5-(2-fluoro-5-(5-(2,2,2-trifluoroethoxy)pyrazine-2-carboxamido)phenyl)-5-methyl-N—((S)-3-methylbutan-2-yl)-2-thia-4-azabicyclo[4.1.0]hept-3-ene-1-carboxamide]"
927,0.0055,0.0194,0.209,,,,,"COC[C@]12C[C@H]1[C@@](C)(c1cc(NC(=O)c3cnc(OCCCF)cn3)cc(F)c1F)N=C(N)S2 [Example 740, N-(3-((1S,5S,6S)-3-amino-1-(methoxymethyl)-5-methyl-2-thia-4-azabicyclo[4.1.0]hept-3-en-5-yl)-4,5-difluorophenyl)-5-(3-fluoropropoxy)-2-pyrazinecarboxamide]"
778,0.00299,0.00213,0.013,,,,,"C#CCOc1cnc(C(=O)Nc2ccc(F)c([C@@]3(C)N=C(N)S[C@@]4(COC)C[C@H]43)c2)c(C)n1 [Example 832, N-(3-((1S,5S,6S)-3-amino-1-(methoxymethyl)-5-methyl-2-thia-4-azabicyclo[4.1.0]hept-3-en-5-yl)-4-fluorophenyl)-3-methyl-5-(2-propyn-1-yloxy)-2-pyrazinecarboxamide]"
1250,0.00152,0.00153,0.198,,,,,"Cc1noc(COc2cnc(C(=O)Nc3cc(C)c(F)c([C@@]4(C)N=C(N)S[C@@]5(C(F)F)C[C@@H]45)c3)cn2)n1 [Example 1075, N-(3-((1S,5S,6S)-3-amino-1-(difluoromethyl)-5-methyl-2-thia-4-azabicyclo[4.1.0]hept-3-en-5-yl)-4-fluoro-5-methylphenyl)-5-((3-methyl-1,2,4-oxadiazol-5-yl)methoxy)pyrazine-2-carboxamide]"
